Results as given in patent US7176281B2 (priority 2003, dated 2007).
Where a SMILES comes first, the peptide text is derived from it.

Columns and labels:
serum sPLA2 = test: Serum sPLA2 levels in Tg197 mice, E. coli membrane assay; type: in vivo, mouse; details: 3–4 weeks post-treatment
Description: Serum of transgenic (Tg197) mice and non-transgenic wild type controls were measured for sPLA2 using an Escherichia coli (E. coli) membrane assay as described previously [Eur J Biochem 2002, 269:719–727]. In brief, [^3H] arachidonate-labeled E. coli membrane suspension (5.8 μCi/μmol, Perkin Elmer, USA) was used as substrate, and 25 mM CaCl2-100 mM Tris-HCl (pH 7.5) as assay buffer. The reaction mixture containing substrate (20 μl), and either purified human synovial sPLA2 standard (1–80 ng/ml, Cayman, USA) or serum (10 μl) in a final volume of 250 μl in assay buffer was incubated at 37° C. for 1 h, and the reaction terminated with 750 μl of chilled PBS containing 1% BSA. 500 μl aliquots of the supernatant were then taken to measure the amount of [^3H] arachidonate released from the E. coli membrane using liquid scintillation counting (Beckman LS 6500 Scintillation Counter). The amount of sPLA2 present in the serum was calculated from the standard curve, and is expressed as ng/ml±SEM.
FIG. 12 depicts time course of serum sPLA2 levels. Serum sPLA2 levels were measured with an E. coli membrane assay in blood samples collected from untreated, P-NT.I- and scrambled P-NT.II-treated Tg197 mice at weekly intervals. Values are the mean±SD (n=4/group). […]

[1] = target: T1, Group IIA purified human synovial sPLA2 (Homo sapiens, UniProt P14555); test: In vitro inhibition of purified human synovial sPLA2, 3H-labelled E. coli membranes; type: biochemical; details: fixed peptide concentration 5 μM
T1 construct: purchased Cayman, USA
T1 sequence (P14555 21-144): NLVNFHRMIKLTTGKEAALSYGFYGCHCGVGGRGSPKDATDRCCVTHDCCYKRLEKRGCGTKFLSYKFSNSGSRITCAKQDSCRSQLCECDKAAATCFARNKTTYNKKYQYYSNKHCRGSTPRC

[2] = test system: Tg197 transgenic mice (chronic inflammatory polyarthritis); test: Tg197 transgenic mouse arthritis model, experiment 1 (5 weeks); type: in vivo; details: for % of total joints, AS (1) / % of total joints, AS (1.5–2): 5 week post-treatment; for % of total at indicated HS scores, HS 2 / % of total at indicated HS scores, HS 3 / % of total at indicated HS scores, HS 4 / Mean HS ± SEM: 5 weeks
Description: The candidate peptide P-NT.II was dissolved in dimethyl sulfoxide (DMSO) at a final concentration of 3 mg/mL. Two sets of experiments were conducted. In Experiment 1 (n=28 Transgenic (Tg197)+7 wild type (wt), peptide-treated animals (Group B) received intra-peritoneal (i.p) injections of 10 mg/kg, thrice weekly for 5 consecutive weeks, while the vehicle controls (Group E) were injected with DMSO (3 mL/kg) only. Non-transgenic (wild type) mice in different groups (C, D) were similarly treated either with the same i.p dose of peptide or DMSO. At the end of the experiment following 5 weeks of peptide injection, each Tg197 mice received a total dose of 1.8 mg of peptide P-NT.II (0.9 μmole).
Disease monitoring was done by gross observations based on body weight measurements and arthritis scoring, which were done twice weekly after treatment until all the animals were sacrificed at 5th week in experiment 1, or at 4th week in experiment 2. Arthritis score (AS) was recorded on both ankle joints, and average scores as shown below were taken: • 0=no arthritis (normal appearance and flexion); • 0.5=onset of arthritis (mild joint swelling); • 1.0=mild arthritis (joint distortion); • 1.5=as above+finger deformation, less strength on flexion; • […]=moderate arthritis (severe swelling, joint deformation, no strength on flexion); • 2.5=as above+finger deformation in paws; • 3.0=heavy arthritis (ankylosis detected on flexion and severely impaired movement).
For histopathological scoring, both hind legs were dissected and fixed in 10% formaldehyde overnight, decalcified in citrate-buffered formic acid for 3 days at 4° C., and processed for light microscopy (LM). • Histopathological score (HS) was evaluated as follows: • 0=no detectable pathology, • 1=hyperplasia of the synovial membrane and presence of polymorphonuclear infiltrates • 2=pannus and fibrous tissue formation and focal subchondrial bone erosion • 3=articular cartilage destruction and bone erosion • 4=articular cartilage destruction and extensive bone erosion.
Anti-inflammatory activity of the candidate peptide P-NT.II was examined as a new treatment option for modulating rheumatoid arthritis (RA) in a transgenic animal model. To evaluate the potential effectiveness of the peptide as prophylaxis against RA, two separate experiments were performed in 4 week-old transgenic (Tg197) mice and non-transgenic wild-type (wt) mice. These transgenic mice (Tg197) express human tumor necrosis factor (TNFα), a cytokine which has been implicated in the pathogenesis of human RA.

[3] = target: T2, 100-kDa human recombinant cytosolic form of PLA2 (cPLA2) (Homo sapiens, UniProt P47712); test: PLA2 inhibition, E. coli membrane assay, cPLA2; type: biochemical; details: inhibition
T2 sequence (P47712 1-749): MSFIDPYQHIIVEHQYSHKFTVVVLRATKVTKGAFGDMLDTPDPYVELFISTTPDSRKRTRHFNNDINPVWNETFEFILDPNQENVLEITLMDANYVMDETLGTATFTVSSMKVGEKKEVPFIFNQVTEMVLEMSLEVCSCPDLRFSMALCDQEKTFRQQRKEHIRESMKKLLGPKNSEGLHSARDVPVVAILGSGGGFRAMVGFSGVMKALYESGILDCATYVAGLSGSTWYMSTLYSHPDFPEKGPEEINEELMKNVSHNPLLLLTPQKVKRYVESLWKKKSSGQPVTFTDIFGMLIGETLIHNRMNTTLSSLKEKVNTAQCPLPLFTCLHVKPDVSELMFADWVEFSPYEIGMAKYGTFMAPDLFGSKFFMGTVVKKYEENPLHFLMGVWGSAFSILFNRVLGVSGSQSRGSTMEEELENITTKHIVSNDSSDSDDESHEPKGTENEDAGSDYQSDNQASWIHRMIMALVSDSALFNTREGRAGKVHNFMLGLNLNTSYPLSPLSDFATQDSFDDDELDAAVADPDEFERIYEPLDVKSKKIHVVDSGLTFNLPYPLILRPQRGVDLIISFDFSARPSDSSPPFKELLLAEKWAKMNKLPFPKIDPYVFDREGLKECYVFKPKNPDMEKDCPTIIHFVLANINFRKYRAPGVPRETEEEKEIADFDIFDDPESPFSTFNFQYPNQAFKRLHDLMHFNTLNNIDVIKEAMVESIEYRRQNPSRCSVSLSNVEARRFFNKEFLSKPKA

[4] = test system: organotypic hippocampal slice cultures; test: Kainate-induced injury in organotypic hippocampal slice cultures, GluR1 immunoreactivity

**Q.** What does the source list for `CC[C@H](C)[C@H](NC(=O)[C@H](Cc1ccc(O)cc1)NC(=O)[C@@H](NC(=O)CNC(=O)[C@H](CC(=O)O)NC(=O)[C@H](Cc1c[nH]c2ccccc12)NC(=O)[C@@H](NC(=O)[C@H](Cc1c[nH]cn1)NC(=O)[C@@H](NC(=O)[C@H](CC(=O)O)NC(=O)[C@@H](NC(=O)[C@H](CCCNC(=N)N)NC(=O)CNC(=O)[C@@H](N)CC(C)C)C(C)C)[C@@H](C)CC)C(C)C)C(C)C)C(=O)N[C@@H](CCCNC(=N)N)C(=O)NCC(=O)N[C@@H](CCCNC(=N)N)C(=O)O` [P-NT.II] (H-LGRVDIHVWDGVYIRGR-OH; N-terminus and C-terminus assumed)?
**A.** circulating sPLA2 compared with untreated mice (serum sPLA2): significantly suppressed; inhibition at 5 µM [1]: 55.6%; % of total joints, AS (1) ([2]; 4 M + 3 F, 14 joints): 50%; % of total joints, AS (1.5–2) ([2]; 4 M + 3 F, 14 joints): 50%; % of total at indicated HS scores, HS 2 ([2]; 4 M + 3 F, 14 joints): 35.7%; % of total at indicated HS scores, HS 3 ([2]; 4 M + 3 F, 14 joints): 64.3%; % of total at indicated HS scores, HS 4 ([2]; 4 M + 3 F, 14 joints): 0%; Mean HS ± SEM ([2]; 4 M + 3 F, 14 joints): 2.71 ± 0.15; % of total at indicated HS scores, HS 2 ([2]; 4 M, 8 joints, 10 mg/kg i.p. thrice weekly): 62.5%; % of total joints, AS (1) ([2]; 4 M, 8 joints): 87%; % of total joints, AS (1.5–2) ([2]; 4 M, 8 joints): 13%; % of total at indicated HS scores, HS 3 ([2]; 4 M, 8 joints): 37.5%; % of total at indicated HS scores, HS 4 ([2]; 4 M, 8 joints): 0%; Mean HS ± SEM ([2]; 4 M, 8 joints): 2.37 ± 0.18; effect of peptide on joint damage ([2]; females, P>0.05): less evident; histological scores compared with untreated or DMSO-treated groups ([2]; male Tg197 mice, P<0.001): significantly lower histological scores; histological scores compared with untreated or DMSO-treated mice ([2]; males + females, P<0.05): significantly lower histological scores; selectivity for sPLA2 over cPLA2 [3]: five-fold; GluR1 immunoreactivity of pyramidal neurons after kainate ([4]; 10 μM added before kainate): significantly prevented the decrease in GluR1 immunoreactivity; protection against kainite lesioned hippocampal slices ([4]; 6–10 μM): almost complete protection
